Measured values published in patent US20230330045A1 (priority 2020, published 2023).
Where two headings read alike, the source gives them in different places.

Experiments:
[1] = target: M2 (h) (Homo sapiens, UniProt P08172); test: SafetyScreen44 binding assay M2 (h); settings: antagonist radioligand, read-out: % Inhibition of Specific Control Binding
Text: (§1) This panel included 38 binding assays and six functional assays of well-established targets and pathways that lead to off-target adverse drug reactions.

[2] = target: CB1 (h) (Homo sapiens, UniProt P21554); test: SafetyScreen44 binding assay CB1 (h); settings: agonist radioligand, read-out: % Inhibition of Specific Control Binding
Text: as §1

[3] = target: 5-HT2A (h) (Homo sapiens, UniProt P28223); test: SafetyScreen44 binding assay 5-HT2A (h); settings: agonist radioligand, read-out: % Inhibition of Specific Control Binding
Text: as §1

[4] = target: alpha 1A (h) (Homo sapiens, UniProt P35348); test: SafetyScreen44 binding assay alpha 1A (h); settings: antagonist radioligand, read-out: % Inhibition of Specific Control Binding
Text: as §1

[5] = target: 5-HT transporter (h) (Homo sapiens, UniProt P31645); test: SafetyScreen44 binding assay 5-HT transporter (h); settings: antagonist radioligand, read-out: % Inhibition of Specific Control Binding
Text: as §1

[6] = target: alpha 2A (h) (Homo sapiens, UniProt P08913); test: SafetyScreen44 binding assay alpha 2A (h); settings: antagonist radioligand, read-out: % Inhibition of Specific Control Binding
Text: as §1

[7] = tested on: KV channel; test: SafetyScreen44 binding assay KV channel; settings: at 1 μM; antagonist radioligand
Text: as §1

[8] = target: A2A (h) (Homo sapiens, UniProt P29274); test: SafetyScreen44 binding assay A2A (h); settings: agonist radioligand, read-out: % Inhibition of Specific Control Binding
Text: as §1

[9] = target: M1 (h) (Homo sapiens, UniProt P11229); test: SafetyScreen44 binding assay M1 (h); settings: antagonist radioligand, read-out: % Inhibition of Specific Control Binding
Text: as §1

[10] = target: CB2 (h) (Homo sapiens, UniProt P34972); test: SafetyScreen44 binding assay CB2 (h); settings: agonist radioligand, read-out: % Inhibition of Specific Control Binding
Text: as §1

[11] = target: 5-HT1A (h) (Homo sapiens, UniProt P08908); test: SafetyScreen44 binding assay 5-HT1A (h); settings: agonist radioligand, read-out: % Inhibition of Specific Control Binding
Text: as §1

[12] = target: dopamine transporter (h) (Homo sapiens, UniProt Q01959); test: SafetyScreen44 binding assay dopamine transporter (h); settings: antagonist radioligand, read-out: % Inhibition of Specific Control Binding
Text: as §1

[13] = tested on: Ca2+ channel (L, dihydropyridine site); test: SafetyScreen44 binding assay Ca2+ channel (L, dihydropyridine site); settings: at 1 μM; antagonist radioligand
Text: as §1

[14] = target: CCK1 (CCKA) (h) (Homo sapiens, UniProt P32238); test: SafetyScreen44 binding assay CCK1 (CCKA) (h); settings: agonist radioligand, read-out: % Inhibition of Specific Control Binding
Text: as §1

[15] = target: M3 (h) (Homo sapiens, UniProt P20309); test: SafetyScreen44 binding assay M3 (h); settings: antagonist radioligand, read-out: % Inhibition of Specific Control Binding
Text: as §1

[16] = target: MAO-A (Rattus norvegicus, UniProt P21396); test: SafetyScreen44 binding assay MAO-A; settings: antagonist radioligand, read-out: % Inhibition of Specific Control Binding
Text: as §1

[17] = target: Lck kinase (h) (Homo sapiens, UniProt P06239); test: SafetyScreen44 enzyme assay Lck kinase (h); format: biochemical; settings: read-out: % Inhibition of Control Values
Text: as §1

[18] = target: T1, human AChE (Homo sapiens, UniProt P22303); format: biochemical
[19] = target: 5-HT1B (h) (Homo sapiens, UniProt P28222); test: SafetyScreen44 binding assay 5-HT1B (h); settings: antagonist radioligand, read-out: % Inhibition of Specific Control Binding
Text: as §1

[20] = target: PDE4D2 (h) (Homo sapiens, UniProt Q08499); test: SafetyScreen44 enzyme assay PDE4D2 (h); format: biochemical; settings: read-out: % Inhibition of Control Values
Text: as §1

[21] = target: T1, human AChE; format: biochemical; remark: listed apart in the source
[22] = tested on: Na+ channel (site 2); test: SafetyScreen44 binding assay Na+ channel (site 2); settings: at 1 μM; antagonist radioligand
Text: as §1

[23] = target: hERG potassium channel (Homo sapiens, UniProt Q12809); test: SafetyScreen44 binding assay Potassium Channel hERG (human)-[3H] Dofetilide; settings: probe [3H] Dofetilide, read-out: % Inhibition of Specific Control Binding
Text: as §1

[24] = tested on: BZD (central); test: SafetyScreen44 binding assay BZD (central); settings: at 1 μM; agonist radioligand
Text: as §1

[25] = target: beta 2 (h) (Homo sapiens, UniProt P07550); test: SafetyScreen44 binding assay beta 2 (h); settings: antagonist radioligand, read-out: % Inhibition of Specific Control Binding
Text: as §1

[26] = target: COX2(h) (Homo sapiens, UniProt P35354); test: SafetyScreen44 enzyme assay COX2(h); format: biochemical; settings: read-out: % Inhibition of Control Values
Text: as §1

[27] = target: GR (h) (Homo sapiens, UniProt P04150); test: SafetyScreen44 binding assay GR (h); settings: agonist radioligand, read-out: % Inhibition of Specific Control Binding
Text: as §1

[28] = target: kappa (h) (KOP) (Homo sapiens, UniProt P41145); test: SafetyScreen44 binding assay kappa (h) (KOP); settings: agonist radioligand, read-out: % Inhibition of Specific Control Binding
Text: as §1

[29] = target: 5-HT3 (h) (Homo sapiens, UniProt P46098); test: SafetyScreen44 binding assay 5-HT3 (h); settings: antagonist radioligand, read-out: % Inhibition of Specific Control Binding
Text: as §1

[30] = target: COX1(h) (Homo sapiens, UniProt P23219); test: SafetyScreen44 enzyme assay COX1(h); format: biochemical; settings: read-out: % Inhibition of Control Values
Text: as §1

[31] = target: D1 (h) (Homo sapiens, UniProt P21728); test: SafetyScreen44 binding assay D1 (h); settings: antagonist radioligand, read-out: % Inhibition of Specific Control Binding
Text: as §1

[32] = target: 5-HT2B (h) (Homo sapiens, UniProt P41595); test: SafetyScreen44 binding assay 5-HT2B (h); settings: agonist radioligand, read-out: % Inhibition of Specific Control Binding
Text: as §1

[33] = target: H2 (h) (Homo sapiens, UniProt P25021); test: SafetyScreen44 binding assay H2 (h); settings: antagonist radioligand, read-out: % Inhibition of Specific Control Binding
Text: as §1

[34] = target: V1a (h) (Homo sapiens, UniProt P37288); test: SafetyScreen44 binding assay V1a (h); settings: agonist radioligand, read-out: % Inhibition of Specific Control Binding
Text: as §1

[35] = target: D2S (h) (Homo sapiens, UniProt P14416); test: SafetyScreen44 binding assay D2S (h); settings: agonist radioligand, read-out: % Inhibition of Specific Control Binding
Text: as §1

[36] = tested on: NMDA; test: SafetyScreen44 binding assay NMDA; settings: at 1 μM; antagonist radioligand
Text: as §1

[37] = target: eel acetylcholinesterase (AChE) (Electrophorus electricus, UniProt O42275); test: Eel AChE fluorescence assay (AMPLEX Red kit); format: biochemical; settings: for assay interference test versus enzyme-free H2O2 reaction: parallel dose-response with 5 μM H2O2; for Hill slope, eel AChE dose-response: sixteen-point serial dilution, four-parameter fit
Method: Enzymatic reactions consisted of 50 μM acetylcholine, 200 μM AIVIPLEX™ Red reagent, 1 U/mL horseradish peroxidase, 0.1 U/mL choline oxidase and 0.096 U/mL acetylcholinesterase, with 30 1% DMSO. […] Control reactions lacking acetylcholinesterase but containing 5 μM H2O2 in presence of compounds were analyzed at the same wavelength to exclude compounds that display assay interference. Dose-response curves were performed in duplicate.

[38] = target: beta 1 (h) (Homo sapiens, UniProt P08588); test: SafetyScreen44 binding assay beta 1 (h); settings: agonist radioligand, read-out: % Inhibition of Specific Control Binding
Text: as §1

[39] = target: N neuronal alpha 4beta 2 (h) (Homo sapiens, UniProt P17787+P43681); test: SafetyScreen44 binding assay N neuronal alpha 4beta 2 (h); settings: agonist radioligand, read-out: % Inhibition of Specific Control Binding
Text: as §1

[40] = target: norepinephrine transporter (h) (Homo sapiens, UniProt P23975); test: SafetyScreen44 binding assay norepinephrine transporter (h); settings: antagonist radioligand, read-out: % Inhibition of Specific Control Binding
Text: as §1

[41] = target: human butyrylcholinesterase (BuChE) (Homo sapiens, UniProt P06276); test: Human BuChE colorimetric activity kit assay; format: biochemical
Method: Reactions were performed in 384-well plates (781162, Greiner BioOne, GmbH, Kremsmunster, Austria) with 1% DMSO, according to the manufacturer's instructions with a few modifications. Compounds were incubated with enzyme for 30 minutes at room temperature before addition of substrate. Total volume of the reaction was 100 μL, we use 5 μL enzyme and kinetic reactions were performed at 30° C. for 60 minutes using a microplate reader sold under the tradename SPECTRAMAX™ iD5 (Molecular Devices, San Jose, California, United States of America) and an absorbance of 412 nm. Percent activity was calculated by calculating the slope of each reaction as stated above and comparing the positive control (PC) to sample (S): % Relative activity=SlopeS/SlopePCx100. We evaluated if assay reagents could interfere with the absorbance by adding compound or DMSO to a 150 μM solution of 5-thio-2-nitrobenzoic acid and measuring at […].

[42] = target: acetylcholinesterase (h) (Homo sapiens, UniProt P22303); test: SafetyScreen44 enzyme assay acetylcholinesterase (h); format: biochemical; settings: at 1 μM
Text: as §1

[43] = target: H1 (h) (Homo sapiens, UniProt P35367); test: SafetyScreen44 binding assay H1 (h); settings: antagonist radioligand, read-out: % Inhibition of Specific Control Binding
Text: as §1

[44] = target: delta (DOP) (h) (Homo sapiens, UniProt P41143); test: SafetyScreen44 binding assay delta (DOP) (h); settings: agonist radioligand, read-out: % Inhibition of Specific Control Binding
Text: as §1

[45] = target: mu (MOP) (h) (Homo sapiens, UniProt P35372); test: SafetyScreen44 binding assay mu (MOP) (h); settings: agonist radioligand, read-out: % Inhibition of Specific Control Binding
Text: as §1

[46] = target: ETA (h) (Homo sapiens, UniProt P25101); test: SafetyScreen44 binding assay ETA (h); settings: agonist radioligand, read-out: % Inhibition of Specific Control Binding
Text: as §1

[47] = target: PDE3A (h) (Homo sapiens, UniProt Q14432); test: SafetyScreen44 enzyme assay PDE3A (h); format: biochemical; settings: read-out: % Inhibition of Control Values
Text: as §1

Chain of eel acetylcholinesterase (AChE) (O42275 24-633): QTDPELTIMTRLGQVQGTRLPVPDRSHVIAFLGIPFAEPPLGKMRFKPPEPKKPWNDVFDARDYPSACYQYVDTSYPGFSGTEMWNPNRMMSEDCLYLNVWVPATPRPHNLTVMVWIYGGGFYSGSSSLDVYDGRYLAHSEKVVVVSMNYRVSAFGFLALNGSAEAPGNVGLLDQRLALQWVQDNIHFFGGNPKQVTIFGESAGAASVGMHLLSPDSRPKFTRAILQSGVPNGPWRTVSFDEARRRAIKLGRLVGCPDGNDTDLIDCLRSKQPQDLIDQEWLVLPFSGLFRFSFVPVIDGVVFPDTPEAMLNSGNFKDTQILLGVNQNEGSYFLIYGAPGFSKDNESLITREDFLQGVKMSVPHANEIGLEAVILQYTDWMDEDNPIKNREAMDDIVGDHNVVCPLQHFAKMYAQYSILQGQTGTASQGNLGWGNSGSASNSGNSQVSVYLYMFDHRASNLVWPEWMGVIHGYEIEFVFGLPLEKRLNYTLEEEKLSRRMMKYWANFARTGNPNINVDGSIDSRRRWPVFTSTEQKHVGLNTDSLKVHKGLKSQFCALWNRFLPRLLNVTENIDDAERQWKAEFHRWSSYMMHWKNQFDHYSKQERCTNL
T1 sequence (P22303 32-614): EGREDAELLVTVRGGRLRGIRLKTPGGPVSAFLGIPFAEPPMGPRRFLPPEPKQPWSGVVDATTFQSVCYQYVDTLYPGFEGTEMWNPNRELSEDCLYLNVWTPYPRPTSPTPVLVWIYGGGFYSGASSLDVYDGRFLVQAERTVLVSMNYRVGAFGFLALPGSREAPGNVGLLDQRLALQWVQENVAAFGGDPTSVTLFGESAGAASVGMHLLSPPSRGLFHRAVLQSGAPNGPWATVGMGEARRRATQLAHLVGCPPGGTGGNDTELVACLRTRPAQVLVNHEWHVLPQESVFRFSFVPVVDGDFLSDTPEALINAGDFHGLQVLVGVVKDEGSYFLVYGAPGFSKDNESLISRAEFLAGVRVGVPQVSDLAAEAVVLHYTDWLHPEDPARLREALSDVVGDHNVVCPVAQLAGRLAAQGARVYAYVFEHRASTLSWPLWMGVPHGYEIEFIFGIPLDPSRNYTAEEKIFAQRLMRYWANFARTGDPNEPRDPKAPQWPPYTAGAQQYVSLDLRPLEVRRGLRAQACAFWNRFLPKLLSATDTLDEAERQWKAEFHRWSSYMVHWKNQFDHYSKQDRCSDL
Chain of human butyrylcholinesterase (BuChE) (P06276 29-602): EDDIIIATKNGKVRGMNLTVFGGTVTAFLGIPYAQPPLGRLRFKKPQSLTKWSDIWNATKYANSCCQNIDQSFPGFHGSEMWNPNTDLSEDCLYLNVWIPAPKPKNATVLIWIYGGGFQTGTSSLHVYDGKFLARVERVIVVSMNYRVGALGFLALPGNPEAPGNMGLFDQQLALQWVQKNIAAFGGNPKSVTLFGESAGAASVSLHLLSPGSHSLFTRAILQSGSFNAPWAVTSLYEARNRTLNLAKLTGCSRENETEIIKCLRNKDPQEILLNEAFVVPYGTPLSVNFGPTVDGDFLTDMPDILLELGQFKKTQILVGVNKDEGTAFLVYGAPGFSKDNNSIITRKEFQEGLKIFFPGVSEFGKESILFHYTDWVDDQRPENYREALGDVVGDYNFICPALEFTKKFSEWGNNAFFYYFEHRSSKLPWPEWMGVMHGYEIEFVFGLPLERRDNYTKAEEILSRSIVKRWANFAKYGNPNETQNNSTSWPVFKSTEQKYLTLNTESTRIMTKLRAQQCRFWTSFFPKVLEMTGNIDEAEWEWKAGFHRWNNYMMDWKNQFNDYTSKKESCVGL
Chain of COX2(h) (P35354 18-604): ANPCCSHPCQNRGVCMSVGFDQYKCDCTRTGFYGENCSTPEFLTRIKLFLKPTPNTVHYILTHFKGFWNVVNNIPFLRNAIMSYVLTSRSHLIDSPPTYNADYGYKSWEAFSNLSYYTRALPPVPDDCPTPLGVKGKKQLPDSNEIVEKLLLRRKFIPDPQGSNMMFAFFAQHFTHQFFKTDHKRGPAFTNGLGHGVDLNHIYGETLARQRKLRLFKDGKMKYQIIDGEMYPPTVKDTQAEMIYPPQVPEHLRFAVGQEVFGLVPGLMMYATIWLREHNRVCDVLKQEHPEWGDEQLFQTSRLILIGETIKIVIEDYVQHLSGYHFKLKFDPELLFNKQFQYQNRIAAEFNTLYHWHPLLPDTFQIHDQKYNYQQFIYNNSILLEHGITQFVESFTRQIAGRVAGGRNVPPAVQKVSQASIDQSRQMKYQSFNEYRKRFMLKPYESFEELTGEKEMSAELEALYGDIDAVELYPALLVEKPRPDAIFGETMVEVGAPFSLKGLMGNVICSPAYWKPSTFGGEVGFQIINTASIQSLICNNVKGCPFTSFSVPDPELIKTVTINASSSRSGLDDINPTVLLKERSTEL
Chain of M2 (h) (P08172 whole entry): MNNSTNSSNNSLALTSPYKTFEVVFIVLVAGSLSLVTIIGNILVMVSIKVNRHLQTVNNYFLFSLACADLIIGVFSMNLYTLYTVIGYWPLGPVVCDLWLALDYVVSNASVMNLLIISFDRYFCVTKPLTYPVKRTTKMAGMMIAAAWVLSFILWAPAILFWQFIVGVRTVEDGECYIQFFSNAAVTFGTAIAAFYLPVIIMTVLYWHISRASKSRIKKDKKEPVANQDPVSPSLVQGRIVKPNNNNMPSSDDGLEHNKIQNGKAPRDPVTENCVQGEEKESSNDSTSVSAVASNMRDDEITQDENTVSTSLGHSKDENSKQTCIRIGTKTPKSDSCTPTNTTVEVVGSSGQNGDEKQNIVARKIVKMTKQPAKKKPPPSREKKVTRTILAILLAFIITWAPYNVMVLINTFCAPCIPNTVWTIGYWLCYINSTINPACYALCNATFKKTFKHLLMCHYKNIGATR
Chain of M1 (h) (P11229 whole entry): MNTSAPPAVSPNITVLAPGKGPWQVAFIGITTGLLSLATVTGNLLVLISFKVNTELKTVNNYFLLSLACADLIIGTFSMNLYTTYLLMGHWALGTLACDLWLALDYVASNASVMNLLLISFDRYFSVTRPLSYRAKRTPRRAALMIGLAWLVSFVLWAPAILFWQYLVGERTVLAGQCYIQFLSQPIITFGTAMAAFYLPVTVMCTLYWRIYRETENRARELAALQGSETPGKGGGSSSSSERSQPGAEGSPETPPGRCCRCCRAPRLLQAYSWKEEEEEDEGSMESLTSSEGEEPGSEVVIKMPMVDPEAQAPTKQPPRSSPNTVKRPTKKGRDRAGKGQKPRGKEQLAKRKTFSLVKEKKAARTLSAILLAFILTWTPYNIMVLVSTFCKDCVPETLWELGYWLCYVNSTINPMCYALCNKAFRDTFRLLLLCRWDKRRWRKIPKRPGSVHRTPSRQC
Chain of M3 (h) (P20309 whole entry): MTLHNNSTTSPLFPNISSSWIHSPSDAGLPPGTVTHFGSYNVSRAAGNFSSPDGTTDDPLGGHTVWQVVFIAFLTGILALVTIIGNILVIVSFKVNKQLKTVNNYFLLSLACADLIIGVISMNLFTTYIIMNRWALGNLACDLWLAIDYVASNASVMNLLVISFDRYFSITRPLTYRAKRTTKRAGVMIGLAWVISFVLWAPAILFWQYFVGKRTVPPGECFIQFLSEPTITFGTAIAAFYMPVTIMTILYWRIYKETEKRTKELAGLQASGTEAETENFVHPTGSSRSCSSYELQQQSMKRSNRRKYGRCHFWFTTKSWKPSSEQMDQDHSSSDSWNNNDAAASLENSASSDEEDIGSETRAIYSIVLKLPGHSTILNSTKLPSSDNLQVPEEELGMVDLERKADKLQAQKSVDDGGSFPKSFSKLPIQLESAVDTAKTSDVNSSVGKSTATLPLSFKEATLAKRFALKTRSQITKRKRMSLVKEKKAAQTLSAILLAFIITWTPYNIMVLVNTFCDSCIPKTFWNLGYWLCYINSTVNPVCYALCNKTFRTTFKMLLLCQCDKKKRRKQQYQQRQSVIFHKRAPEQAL
Chain of alpha 1A (h) (P35348 whole entry): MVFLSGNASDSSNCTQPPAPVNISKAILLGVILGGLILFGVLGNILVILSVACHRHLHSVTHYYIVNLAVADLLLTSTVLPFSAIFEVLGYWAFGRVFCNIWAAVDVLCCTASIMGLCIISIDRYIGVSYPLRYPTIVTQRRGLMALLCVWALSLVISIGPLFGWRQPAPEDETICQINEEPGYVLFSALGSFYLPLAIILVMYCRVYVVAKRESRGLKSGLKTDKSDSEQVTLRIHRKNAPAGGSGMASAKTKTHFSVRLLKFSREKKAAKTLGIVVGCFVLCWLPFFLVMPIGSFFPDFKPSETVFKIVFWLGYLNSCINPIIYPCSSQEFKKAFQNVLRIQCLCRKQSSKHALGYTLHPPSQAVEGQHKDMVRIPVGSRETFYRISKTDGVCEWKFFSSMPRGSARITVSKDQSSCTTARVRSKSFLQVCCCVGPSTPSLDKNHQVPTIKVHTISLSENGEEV
Chain of COX1(h) (P23219 24-599): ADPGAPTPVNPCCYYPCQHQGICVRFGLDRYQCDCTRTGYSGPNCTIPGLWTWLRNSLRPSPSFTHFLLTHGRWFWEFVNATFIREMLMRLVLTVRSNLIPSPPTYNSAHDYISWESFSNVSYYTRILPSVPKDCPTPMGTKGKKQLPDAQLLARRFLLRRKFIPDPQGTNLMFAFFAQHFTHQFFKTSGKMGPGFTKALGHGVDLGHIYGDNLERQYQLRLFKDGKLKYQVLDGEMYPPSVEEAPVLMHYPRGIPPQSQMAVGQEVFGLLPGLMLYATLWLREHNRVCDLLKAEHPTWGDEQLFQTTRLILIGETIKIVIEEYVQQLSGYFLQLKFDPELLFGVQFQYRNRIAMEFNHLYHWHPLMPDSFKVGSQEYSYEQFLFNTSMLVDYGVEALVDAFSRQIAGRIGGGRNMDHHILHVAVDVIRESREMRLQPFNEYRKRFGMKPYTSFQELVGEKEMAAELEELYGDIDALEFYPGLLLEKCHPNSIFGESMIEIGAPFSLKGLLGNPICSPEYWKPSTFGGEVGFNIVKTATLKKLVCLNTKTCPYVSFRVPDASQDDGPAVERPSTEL
Chain of acetylcholinesterase (h) (P22303 32-614): as the sequence (P22303 32-614) above

Compound: CCN(CC)CCOc1ccc2c(c1)C(=O)c1cc(OCCN(CC)CC)ccc1-2 [tilorone]
- inhibition at 1 µM [1]: 26%
- inhibition at 1 µM [2]: 0%
- inhibition at 1 µM [3]: 25%
- inhibition at 1 µM [4]: 26%
- inhibition at 1 µM [5]: 44%
- inhibition at 1 µM [6]: 0%
- % Inhibition of Specific Control Binding [7]: 0%
- inhibition at 1 µM [8]: -4%
- inhibition at 1 µM [9]: 28%
- inhibition at 1 µM [10]: -16%
- inhibition at 1 µM [11]: 12%
- inhibition at 1 µM [12]: -9%
- % Inhibition of Specific Control Binding [13]: 4%
- inhibition at 1 µM [14]: -5%
- inhibition at 1 µM [15]: 17%
- inhibition at 1 µM [16]: 3%
- inhibition at 1 µM [17]: 13%
- IC50 ([18]; average of the colorimetric and Eurofins values, read-out: average IC50 for human AChE): 64.6 nM
- IC50 ([18]; colorimetric kit, n=2, read-out: IC50 against human AChE (colorimetric assay)): 73.3 nM
- Hill slope, human AChE colorimetric dose-response ([18]; two-fold 16-point dilution from 20 μM): 0.84
- inhibition at 1 µM [19]: 21%
- inhibition at 1 µM [20]: -15%
- Bottom of curve, Eurofins human AChE ([21]; % Inhibition of Control Values): −7
- Top of curve, Eurofins human AChE ([21]; % Inhibition of Control Values): 99
- IC50 ([21]; third-party photometric assay, read-out: IC50 against human AChE (Eurofins Discovery)): 56 nM
- Hill slope, Eurofins human AChE curve ([21]; two-fold dilution from 5 μM): 1.0
- % Inhibition of Specific Control Binding [22]: 1%
- inhibition at 1 µM [23]: -4%
- % Inhibition of Specific Control Binding [24]: −9%
- inhibition at 1 µM [25]: -6%
- inhibition at 1 µM [26]: -1%
- inhibition at 1 µM [27]: -5%
- inhibition at 1 µM [28]: 4%
- inhibition at 1 µM [29]: 6%
- inhibition at 1 µM [30]: -17%
- inhibition at 1 µM [31]: -10%
- inhibition at 1 µM [32]: -9%
- inhibition at 1 µM [33]: -11%
- inhibition at 1 µM [34]: -1%
- inhibition at 1 µM [35]: 1%
- % Inhibition of Specific Control Binding [36]: −10%
- IC50 ([37]; dose-response, 1% DMSO): 14.4 nM
- inhibition at 20 µM ([37]; eel AChE activity, at 20 μM, read-out: Percentage inhibition): 103%
- assay interference test versus enzyme-free H2O2 reaction [37]: likely represent true inhibition of the enzyme
- inhibition at 20 µM ([37]; read-out: inhibition of enzyme activity compared to DMSO control (screen)): ≥ 50%
- Hill slope, eel AChE dose-response [37]: 0.62
- inhibition at 1 µM [38]: 5%
- inhibition at 1 µM [39]: 0%
- inhibition at 1 µM [40]: 14%
- IC50 [41]: > 50 nM
- inhibition at 100 µM ([41]; at 100 μM, single point, read-out: inhibition of human BChE): 50%
- % Inhibition of Control Values [42]: 92%
- inhibition at 1 µM [43]: -6%
- inhibition at 1 µM [44]: 0%
- inhibition at 1 µM [45]: -4%
- inhibition at 1 µM [46]: 5%
- inhibition at 1 µM [47]: 2%

Compound: agelasine
- assay interference test versus enzyme-free H2O2 reaction [37]: likely represent true inhibition of the enzyme
- Hill slope, eel AChE dose-response [37]: 0.79
